# Data: patent publication US9624217B2, “Dihydropyrrolopyridine inhibitors of ROR-gamma” (Vitae Pharmaceuticals, Inc., priority 2014, dated 2017)
# Molecular target: recombinant RORγ Ligand Binding Domain (LBD) (Homo sapiens (Human), UniProt P51449)
# Test: Radio-Ligand RORγ Binding Assay (Assay 1)
# Conditions: SPA competition with 25-hydroxy [26,27-3H]-cholesterol, cell-free; read-out: RORγ Binding Ki Range
# Experimental: Radio-Ligand RORγ Binding Assay (Assay 1)
# Compounds of the present invention were tested for ability to bind to RORγ in a cell-free competition assay with commercially available radio-ligand (RL), 25-hydroxy [26,27-^3H]-cholesterol (PerkinElmer, Cat. #NET674250UC), for a ligand binding site on a recombinant RORγ Ligand Binding Domain (LBD) protein expressed as a 6×His-Glutathione-S-Transferase (GST) fusion. […] The plate was shaken at 700 rpm for 20 min and incubated for 10 min at rt, after which 40 μL of poly-Lys YSi SPA beads (PerkinElmer, Cat. #RPNQ0010) were added to achieve 50 μg of the beads per well. The plate was incubated on an orbital shaker for 20 min and then for 10 min without agitation at rt. SPA signal for tritium beta radiation was registered on PerkinElmer Microbeta plate reader. […] The percent inhibition vs. concentration data were fit into a four-parameter model, and IC50 values were calculated from the fit as the concentrations corresponding to the inflection points on the dose-response curves.
# recombinant RORγ Ligand Binding Domain (LBD), sequence (P51449 269-508): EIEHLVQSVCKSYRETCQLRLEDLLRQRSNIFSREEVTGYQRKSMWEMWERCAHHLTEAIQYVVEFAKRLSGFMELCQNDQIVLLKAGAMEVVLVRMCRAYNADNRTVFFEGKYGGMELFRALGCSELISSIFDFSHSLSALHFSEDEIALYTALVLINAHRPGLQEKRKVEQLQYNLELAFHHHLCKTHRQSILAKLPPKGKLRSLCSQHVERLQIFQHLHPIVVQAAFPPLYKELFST
row,Compound,Ki [nM]
1,CC(=O)N1CCC(CNC(=O)c2cnc3c(c2)CN(Cc2ccc(C(F)(F)F)cc2)[C@H]3C(C)C)CC1 [Compound 114],> 1000
2,CC(C)[C@H]1c2ncc(C(=O)NCC3CCN(S(C)(=O)=O)C3)cc2CN1Cc1ccc(C(F)(F)F)cc1 (some centres unmarked) [Compound 154],> 1000
3,COC(=O)N1CCC(CNC(=O)c2cnc3c(c2)CN(Cc2ccc(C(F)(F)F)cc2)[C@H]3C(C)C)C1 (some centres unmarked) [Compound 107],100 to 1000
4,CC(C)[C@H]1c2ncc(C(=O)NCCCN3CCCC3=O)cc2CN1Cc1ccc(C(F)(F)F)cc1 [Compound 79],> 1000
5,CC(C)[C@H]1c2ncc(C(=O)NC[C@H]3CC[C@H](C(=O)O)CC3)cc2CN1Cc1ccc(C(F)(F)F)cc1 [Compound 148],> 1000
6,CC(C)[C@H]1c2ncc(C(=O)NCc3ccccc3CN3CCN(C)CC3)cc2CN1Cc1ccc(C(F)(F)F)cc1 [Compound 81],> 1000
7,CC(C)[C@H]1c2ncc(C(=O)NCc3cn4cccnc4n3)cc2CN1Cc1ccc(C(F)(F)F)cc1 [Compound 69],> 1000
8,CC(C)[C@@H]1c2ncc(C(=O)NCc3ccc(S(C)(=O)=O)cc3)cc2CN1Cc1ccc(Cl)cc1 [Compound 18],> 1000
9,CC(C)[C@H]1c2ncc(C(=O)NCC3(c4ccc(Cl)cc4)CC3)cc2CN1Cc1ccc(C(F)(F)F)cc1 [Compound 80],> 1000
10,CC(C)[C@H]1c2ncc(C(=O)NCC(c3cccnc3)N3CCOCC3)cc2CN1Cc1ccc(C(F)(F)F)cc1 (some centres unmarked) [Compound 88],> 1000
11,CC(C)[C@H]1c2ncc(C(=O)NCC3(C(=O)O)CCOCC3)cc2CN1Cc1ccc(C(F)(F)F)cc1 [Compound 146],> 1000
12,CC(C)[C@H]1c2ncc(C(=O)NCC(F)F)cc2CN1Cc1ccc(C(F)(F)F)cc1 [Compound 124],> 1000
13,CC(C)[C@H]1c2ncc(C(=O)NCC3CN(C(=O)OC(C)(C)C)C3)cc2CN1Cc1ccc(C(F)(F)F)cc1 [Compound 68],> 1000
14,CC(C)NC(=O)c1cnc2c(c1)CN(Cc1ccc(C(F)(F)F)cc1)[C@H]2C(C)C [Compound 122],> 1000
15,COC(=O)c1ccc(CNC(=O)c2cnc3c(c2)CN(Cc2ccc(C(F)(F)F)cc2)[C@H]3C(C)C)nc1 [Compound 150],> 1000
16,CC(C)[C@H]1c2ncc(C(=O)NCCN3CCN(C)CC3)cc2CN1Cc1ccc(C(F)(F)F)cc1 [Compound 99],> 1000
17,CC(C)[C@H]1c2ncc(C(=O)NCc3ccccc3OCCN(C)C)cc2CN1Cc1ccc(C(F)(F)F)cc1 [Compound 98],> 1000
18,COC(=O)[C@H]1CC[C@H](CNC(=O)c2cnc3c(c2)CN(Cc2ccc(C(F)(F)F)cc2)[C@H]3C(C)C)CC1 [Compound 75],> 1000
19,COC(=O)C(Cc1cc(=O)[nH]c2ccccc12)NC(=O)c1cnc2c(c1)CN(Cc1ccc(C(F)(F)F)cc1)[C@H]2C(C)C (some centres unmarked) [Compound 135],> 1000
20,CC(C)[C@H]1c2ncc(C(=O)NCCC3CN(S(C)(=O)=O)C3)cc2CN1Cc1ccc(C(F)(F)F)cc1 [Compound 152],> 1000

row,Compound,Ki [nM]
1,CC(C)[C@H]1c2ncc(C(=O)NCC3(CC(=O)O)CCCCC3)cc2CN1Cc1ccc(C(F)(F)F)cc1 [Compound 145],> 1000
2,CCS(=O)(=O)c1ccc(CNC(=O)c2cnc3c(c2)C(=O)N(C[C@H]2CC[C@H](C(F)(F)F)CC2)[C@H]3C(C)C)nc1 [Compound 47],< 100
3,COC(=O)N1CC(CNC(=O)c2cnc3c(c2)CN(Cc2ccc(C(F)(F)F)cc2)[C@H]3C(C)C)C1 [Compound 105],> 1000
4,"CC(C)[C@H]1c2ncc(C(=O)NCc3ccc(C(=O)O)cc3)cc2CN1Cc1ccc(C(F)(F)F)cc1 [Compound 147, (S)-4-((7-isopropyl-6-(4-(trifluoromethyl)benzyl)-6,7-dihydro-5H-pyrrolo[3,4-b]pyridine-3-carboxamido)methyl)benzoic acid]",100 to 1000
5,CC(C)[C@H]1c2ncc(C(=O)NCc3nnc4n3CCC4)cc2CN1Cc1ccc(C(F)(F)F)cc1 [Compound 94],> 1000
6,CC(C)[C@@H]1c2ncc(C(=O)NCc3ccc(S(C)(=O)=O)cc3)cc2CN1Cc1ccc(C#N)cc1 [Compound 19],> 1000
7,CC(C)[C@H]1c2ncc(C(=O)NCc3cccnn3)cc2CN1Cc1ccc(C(F)(F)F)cc1 [Compound 84],> 1000
8,CC(C)[C@H]1c2ncc(C(=O)NCCCn3ccnc3)cc2CN1Cc1ccc(C(F)(F)F)cc1 [Compound 96],> 1000
9,CC(C)[C@H]1c2ncc(C(=O)NCc3ccc(C(=O)O)cn3)cc2CN1Cc1ccc(C(F)(F)F)cc1 [Compound 151],100 to 1000
10,CC(C)[C@H]1c2ncc(C(=O)NCC(F)(F)F)cc2CN1Cc1ccc(C(F)(F)F)cc1 [Compound 117],> 1000
11,CC(C)[C@H]1c2ncc(C(=O)NCC3CCN(C)CC3)cc2CN1Cc1ccc(C(F)(F)F)cc1 [Compound 100],> 1000
12,CC(C)[C@H]1c2ncc(C(=O)NC[C@H]3CC[C@H](C#N)CC3)cc2CN1Cc1ccc(C(F)(F)F)cc1 [Compound 129],100 to 1000
13,CC(C)[C@H]1c2ncc(C(=O)NCCN3CCOCC3)cc2CN1Cc1ccc(C(F)(F)F)cc1 [Compound 77],> 1000
14,CC(C)[C@H]1c2ncc(C(=O)NCC3CN(S(C)(=O)=O)C3)cc2CN1Cc1ccc(C(F)(F)F)cc1 [Compound 153],> 1000
15,CC(C)[C@H]1c2ncc(C(=O)NCCC3C(=O)Nc4ccc(Cl)cc43)cc2CN1Cc1ccc(C(F)(F)F)cc1 (some centres unmarked) [Compound 121],> 1000
16,CC(O)C(=O)N1CCC(CNC(=O)c2cnc3c(c2)CN(Cc2ccc(C(F)(F)F)cc2)[C@H]3C(C)C)CC1 (some centres unmarked) [Compound 112],> 1000
17,CCS(=O)(=O)c1ccc(CNC(=O)c2cnc3c(c2)CN(C[C@H]2CC[C@H](C(=O)OC)CC2)[C@H]3C(C)C)cc1 [Compound 44],< 100
18,CC(C)[C@H]1c2ncc(C(=O)NCC3CCS(=O)(=O)CC3)cc2CN1Cc1ccc(C(F)(F)F)cc1 [Compound 61],> 1000
19,CC(C)[C@H]1c2ncc(C(=O)NCc3ccn(C)n3)cc2CN1Cc1ccc(C(F)(F)F)cc1 [Compound 82],> 1000
20,CC(C)[C@H]1c2ncc(C(=O)NCCC3CCOCC3)cc2CN1Cc1ccc(C(F)(F)F)cc1 [Compound 90],100 to 1000

row,Compound,Ki [nM]
1,CC(C)[C@H]1c2ncc(C(=O)NC(Cc3ccc(F)cc3)C(=O)O)cc2CN1Cc1ccc(C(F)(F)F)cc1 (some centres unmarked) [Compound 138],> 1000
2,CC(C)[C@H]1c2ncc(C(=O)NCC3(O)CCC4(CC3)OCCO4)cc2CN1Cc1ccc(C(F)(F)F)cc1 [Compound 118],> 1000
3,CC(C)[C@H]1c2ncc(C(=O)NCC3COCCO3)cc2CN1Cc1ccc(C(F)(F)F)cc1 (some centres unmarked) [Compound 85],> 1000
4,COC(=O)CC1(CNC(=O)c2cnc3c(c2)CN(Cc2ccc(C(F)(F)F)cc2)[C@H]3C(C)C)CCCCC1 [Compound 137],> 1000
5,CC(C)[C@H]1c2ncc(C(=O)NCC3CCN(C(=O)OC(C)(C)C)C3)cc2CN1Cc1ccc(C(F)(F)F)cc1 (some centres unmarked) [Compound 74],> 1000
6,COC(=O)C(Cc1ccc(F)cc1)NC(=O)c1cnc2c(c1)CN(Cc1ccc(C(F)(F)F)cc1)[C@H]2C(C)C (some centres unmarked) [Compound 126],> 1000
7,CCS(=O)(=O)N1CC(CCNC(=O)c2cnc3c(c2)CN(Cc2ccc(C(F)(F)F)cc2)[C@H]3C(C)C)C1 [Compound 102],100 to 1000
8,CC(C)[C@H]1c2ncc(C(=O)NCc3ccc(S(C)(=O)=O)cc3)cc2CN1Cc1ccc(Cl)cn1 [Compound 23],100 to 1000
9,CC(C)[C@H]1c2ncc(C(=O)NC3(CO)Cc4ccccc4C3)cc2CN1Cc1ccc(C(F)(F)F)cc1 [Compound 87],> 1000
10,COC(=O)N1CCC(CNC(=O)c2cnc3c(c2)CN(Cc2ccc(C(F)(F)F)cc2)[C@H]3C(C)C)CC1 [Compound 110],> 1000
11,CC(C)[C@H]1c2ncc(C(=O)N[C@H]3c4ccccc4C[C@H]3O)cc2CN1Cc1ccc(C(F)(F)F)cc1 [Compound 130],> 1000
12,CC(C)[C@H]1c2ncc(C(=O)NCCC3CCS(=O)(=O)CC3)cc2CN1Cc1ccc(C(F)(F)F)cc1 [Compound 62],> 1000
13,CC(C)[C@H]1c2ncc(C(=O)N[C@H]3c4ccccc4C[C@H]3O)cc2CN1Cc1ccc(C(F)(F)F)cc1 [Compound 125],> 1000
14,COC(=O)C1(CNC(=O)c2cnc3c(c2)CN(Cc2ccc(C(F)(F)F)cc2)[C@H]3C(C)C)CCOCC1 [Compound 134],> 1000
15,CC(C)[C@H]1c2ncc(C(=O)NCC(c3ccncc3)N(C)C)cc2CN1Cc1ccc(C(F)(F)F)cc1 (some centres unmarked) [Compound 92],> 1000
16,CCS(=O)(=O)c1ccc(CNC(=O)c2cnc3c(c2)CN(Cc2ccc(C(F)(F)F)cc2)[C@H]3C(C)C)nn1 [Compound 159],< 100
17,CC(C)[C@@H]1c2ncc(C(=O)NCc3ccc(S(C)(=O)=O)cc3)cc2CN1Cc1ccc(C(F)(F)F)cn1 [Compound 37],> 1000
18,CC(C)[C@H]1c2ncc(C(=O)NC3(c4cnccn4)CC3)cc2CN1Cc1ccc(C(F)(F)F)cc1 [Compound 120],> 1000

# Molecular target: full-length RORγt (Homo sapiens (Human), UniProt P51449)
# Sequence (P51449 other isoform, or with tags, fused parts or gaps): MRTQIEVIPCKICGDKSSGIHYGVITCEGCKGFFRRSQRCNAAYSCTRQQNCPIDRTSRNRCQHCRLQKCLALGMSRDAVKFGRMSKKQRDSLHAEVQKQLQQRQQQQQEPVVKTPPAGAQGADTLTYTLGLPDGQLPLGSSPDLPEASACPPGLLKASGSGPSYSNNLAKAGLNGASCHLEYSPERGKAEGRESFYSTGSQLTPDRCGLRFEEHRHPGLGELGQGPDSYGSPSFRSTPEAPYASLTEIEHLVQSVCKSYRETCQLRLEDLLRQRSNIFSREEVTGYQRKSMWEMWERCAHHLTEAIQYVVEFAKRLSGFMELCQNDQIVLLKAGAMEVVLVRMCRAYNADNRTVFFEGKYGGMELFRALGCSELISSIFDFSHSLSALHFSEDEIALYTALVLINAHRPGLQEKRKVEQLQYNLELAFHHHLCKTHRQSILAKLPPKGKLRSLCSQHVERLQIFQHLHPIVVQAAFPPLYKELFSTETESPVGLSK
# Test: RORγt 5×RORE Assay in Jurkat Cells (Assay 2)
# Type: cell-based
# Conditions: secreted Nanoluc luciferase 5×RORE reporter, 16-18 hrs, read-out: RORγt5X IC50 Range
# Experimental: [formula] RORγt 5×RORE Assay in Jurkat Cells (Assay 2)
# Compounds of the present invention were tested for RORγ inverse agonist activity in a cell-based, transcriptional activity assay. […] (Promega, Cat. #N1021) using KpnI and HindIII restriction sites. […] Luciferase activity in the conditioned supernatants was determined with NanoGlo® assay reagents (Promega, Cat. #N1130).
row,Compound,IC50 [nM]
1,CCS(=O)(=O)c1ccc(CC(=O)Nc2cnc3c(c2)CN(Cc2ccc(Cl)cc2)[C@H]3C(C)C)cc1 [Compound 56],100 to 1000
